The text below walks through data of the supplement of paper PMC10307832.

The first experiment relates to NCI-H1915. Nature of the experiment: relative viability (nuclei count vs DMSO), 5 days (fraction); higher = more cells survive. Particulars: first compound 6.325 µM. An outline of the steps:
(§1)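 Relative viability was taken as the ratio of nuclei in treated wells to nuclei in vehicle wells. Lung cancer cell lines in 1536-well plates received compounds by pin tool one day after seeding, either one drug alone or a fixed anchor-drug dose plus five library-drug doses (not always all listed) in √10 steps. Nuclei were counted on 4× images after 5 days of treatment, and values are medians of duplicate plates.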
`COCC1(CO)C(=O)C2CCN1CC2` (centres undefined) [PRIMA-1MET] + COc1cc2c(Oc3ccc(NC(=O)C4(C(=O)Nc5ccc(F)cc5)CC4)cc3F)ccnc2cc1OCCCN1CCOCC1 [Foretinib] (partner 0.25 µM) registered a relative viability of 1.08.

For the molecule `COCC1(CO)C(=O)C2CCN1CC2` (centres undefined) [PRIMA-1MET] + COc1cccc2cc(-c3nc([C@H]4CC[C@H](C(=O)O)CC4)n4ncnc(N)c34)[nH]c12 [OSI-027] (partner 0.5 µM), the relative viability amounted to 0.443.

Molecule `COCC1(CO)C(=O)C2CCN1CC2` (centres undefined) [PRIMA-1MET] + N=C(N)NC(=N)NCCc1ccccc1 [Phenformin] (partner 250 µM) showed a relative viability of 0.399.

In turn, `COCC1(CO)C(=O)C2CCN1CC2` (centres undefined) [PRIMA-1MET] + Cc1nc(Nc2ncc(C(=O)Nc3c(C)cccc3Cl)s2)cc(N2CCN(CCO)CC2)n1 [Dasatinib] (partner 0.075 µM) had a relative viability of 0.269.

Staying with this experiment, now noted: first compound 20 µM.
`COCC1(CO)C(=O)C2CCN1CC2` (centres undefined) [PRIMA-1MET] + Cc1cc(Nc2cc(N3CCN(C)CC3)nc(Sc3ccc(NC(=O)C4CC4)cc3)n2)n[nH]1 [Tozasertib] (partner 0.1 µM) displayed a relative viability of 0.364.

The molecule `COCC1(CO)C(=O)C2CCN1CC2` (centres undefined) [PRIMA-1MET] + COc1cc2c(Oc3ccc(NC(=O)C4(C(=O)Nc5ccc(F)cc5)CC4)cc3F)ccnc2cc1OCCCN1CCOCC1 [Foretinib] (partner 0.25 µM) displayed a relative viability of 1.05.

`COCC1(CO)C(=O)C2CCN1CC2` (centres undefined) [PRIMA-1MET] + COc1cccc2cc(-c3nc([C@H]4CC[C@H](C(=O)O)CC4)n4ncnc(N)c34)[nH]c12 [OSI-027] (partner 0.5 µM) came in with a relative viability of 0.578.

On to `COCC1(CO)C(=O)C2CCN1CC2` (centres undefined) [PRIMA-1MET] + N=C(N)NC(=N)NCCc1ccccc1 [Phenformin] (partner 250 µM), for which the relative viability came to 0.353.

`COCC1(CO)C(=O)C2CCN1CC2` (centres undefined) [PRIMA-1MET] + Cc1nc(Nc2ncc(C(=O)Nc3c(C)cccc3Cl)s2)cc(N2CCN(CCO)CC2)n1 [Dasatinib] (partner 0.075 µM) came in with a relative viability of 0.272.

For the next experiment, the system named is NCI-H1648. Described as above. To be noted: first compound 0.2 µM. An outline of the steps: as §1
As for `COCC1(CO)C(=O)C2CCN1CC2` (centres undefined) [PRIMA-1MET] + Cc1cc(Nc2cc(N3CCN(C)CC3)nc(Sc3ccc(NC(=O)C4CC4)cc3)n2)n[nH]1 [Tozasertib] (partner 0.1 µM), the relative viability is 0.415.

As for `COCC1(CO)C(=O)C2CCN1CC2` (centres undefined) [PRIMA-1MET] + COc1cccc2cc(-c3nc([C@H]4CC[C@H](C(=O)O)CC4)n4ncnc(N)c34)[nH]c12 [OSI-027] (partner 0.5 µM), the relative viability came to 0.24.

The experiment is the same for the next values; noted with them: first compound 0.6325 µM.
As for `COCC1(CO)C(=O)C2CCN1CC2` (centres undefined) [PRIMA-1MET] + Cc1cc(Nc2cc(N3CCN(C)CC3)nc(Sc3ccc(NC(=O)C4CC4)cc3)n2)n[nH]1 [Tozasertib] (partner 0.1 µM), the relative viability worked out at 0.361.

For `COCC1(CO)C(=O)C2CCN1CC2` (centres undefined) [PRIMA-1MET] + COc1cccc2cc(-c3nc([C@H]4CC[C@H](C(=O)O)CC4)n4ncnc(N)c34)[nH]c12 [OSI-027] (partner 0.5 µM), the relative viability was found to be 0.252.

The experiment is the same for the next values; noted with them: first compound 2 µM.
Turning to `COCC1(CO)C(=O)C2CCN1CC2` (centres undefined) [PRIMA-1MET] + Cc1cc(Nc2cc(N3CCN(C)CC3)nc(Sc3ccc(NC(=O)C4CC4)cc3)n2)n[nH]1 [Tozasertib] (partner 0.1 µM), the relative viability was 0.391.

Consider `COCC1(CO)C(=O)C2CCN1CC2` (centres undefined) [PRIMA-1MET] + COc1cccc2cc(-c3nc([C@H]4CC[C@H](C(=O)O)CC4)n4ncnc(N)c34)[nH]c12 [OSI-027] (partner 0.5 µM), for which the relative viability came to 0.283.

The same experiment, now with this note: first compound 6.325 µM.
In the case of `COCC1(CO)C(=O)C2CCN1CC2` (centres undefined) [PRIMA-1MET] + Cc1cc(Nc2cc(N3CCN(C)CC3)nc(Sc3ccc(NC(=O)C4CC4)cc3)n2)n[nH]1 [Tozasertib] (partner 0.1 µM), the relative viability was found to be 0.574.

As to `COCC1(CO)C(=O)C2CCN1CC2` (centres undefined) [PRIMA-1MET] + COc1cccc2cc(-c3nc([C@H]4CC[C@H](C(=O)O)CC4)n4ncnc(N)c34)[nH]c12 [OSI-027] (partner 0.5 µM), the relative viability was 0.256.

The experiment is the same for the next values; noted with them: first compound 20 µM.
As for `COCC1(CO)C(=O)C2CCN1CC2` (centres undefined) [PRIMA-1MET] + Cc1cc(Nc2cc(N3CCN(C)CC3)nc(Sc3ccc(NC(=O)C4CC4)cc3)n2)n[nH]1 [Tozasertib] (partner 0.1 µM), the relative viability is 0.465.

With `COCC1(CO)C(=O)C2CCN1CC2` (centres undefined) [PRIMA-1MET] + COc1cccc2cc(-c3nc([C@H]4CC[C@H](C(=O)O)CC4)n4ncnc(N)c34)[nH]c12 [OSI-027] (partner 0.5 µM), the relative viability turned out to be 0.249.

In another experiment the test system is EBC-1. Described as above. To be noted: first compound 0.2 µM. An outline of the steps: as §1
Regarding `COCC1(CO)C(=O)C2CCN1CC2` (centres undefined) [PRIMA-1MET] + COc1cc2c(Oc3ccc(NC(=O)C4(C(=O)Nc5ccc(F)cc5)CC4)cc3F)ccnc2cc1OCCCN1CCOCC1 [Foretinib] (partner 0.25 µM), the relative viability came to 0.101.

Staying with this experiment, now noted: first compound 0.6325 µM.
On to `COCC1(CO)C(=O)C2CCN1CC2` (centres undefined) [PRIMA-1MET] + COc1cc2c(Oc3ccc(NC(=O)C4(C(=O)Nc5ccc(F)cc5)CC4)cc3F)ccnc2cc1OCCCN1CCOCC1 [Foretinib] (partner 0.25 µM), for which the relative viability amounted to 0.0986.

The experiment is the same for the next values; noted with them: first compound 2 µM.
In turn, `COCC1(CO)C(=O)C2CCN1CC2` (centres undefined) [PRIMA-1MET] + COc1cc2c(Oc3ccc(NC(=O)C4(C(=O)Nc5ccc(F)cc5)CC4)cc3F)ccnc2cc1OCCCN1CCOCC1 [Foretinib] (partner 0.25 µM) gave a relative viability of 0.105.

The same experiment, now with this note: first compound 6.325 µM.
Turning to `COCC1(CO)C(=O)C2CCN1CC2` (centres undefined) [PRIMA-1MET] + COc1cc2c(Oc3ccc(NC(=O)C4(C(=O)Nc5ccc(F)cc5)CC4)cc3F)ccnc2cc1OCCCN1CCOCC1 [Foretinib] (partner 0.25 µM), the relative viability is 0.107.

The experiment is the same for the next values; noted with them: first compound 20 µM.
In the case of `COCC1(CO)C(=O)C2CCN1CC2` (centres undefined) [PRIMA-1MET] + COc1cc2c(Oc3ccc(NC(=O)C4(C(=O)Nc5ccc(F)cc5)CC4)cc3F)ccnc2cc1OCCCN1CCOCC1 [Foretinib] (partner 0.25 µM), the relative viability turned out to be 0.122.

The subject of a further experiment is NCI-H1299. The experiment is described as above. Particulars: first compound 0.2 µM. In outline: as §1
Molecule `COCC1(CO)C(=O)C2CCN1CC2` (centres undefined) [PRIMA-1MET] + COc1cc2c(Oc3ccc(NC(=O)C4(C(=O)Nc5ccc(F)cc5)CC4)cc3F)ccnc2cc1OCCCN1CCOCC1 [Foretinib] (partner 0.25 µM) showed a relative viability of 1.13.

Staying with this experiment, now noted: first compound 0.6325 µM.
In turn, `COCC1(CO)C(=O)C2CCN1CC2` (centres undefined) [PRIMA-1MET] + COc1cc2c(Oc3ccc(NC(=O)C4(C(=O)Nc5ccc(F)cc5)CC4)cc3F)ccnc2cc1OCCCN1CCOCC1 [Foretinib] (partner 0.25 µM) showed a relative viability of 1.12.

The experiment is the same for the next values; noted with them: first compound 2 µM.
`COCC1(CO)C(=O)C2CCN1CC2` (centres undefined) [PRIMA-1MET] + COc1cc2c(Oc3ccc(NC(=O)C4(C(=O)Nc5ccc(F)cc5)CC4)cc3F)ccnc2cc1OCCCN1CCOCC1 [Foretinib] (partner 0.25 µM): the relative viability turned out to be 1.19.

Still in this experiment, the particulars now being: first compound 6.325 µM.
The molecule `COCC1(CO)C(=O)C2CCN1CC2` (centres undefined) [PRIMA-1MET] + COc1cc2c(Oc3ccc(NC(=O)C4(C(=O)Nc5ccc(F)cc5)CC4)cc3F)ccnc2cc1OCCCN1CCOCC1 [Foretinib] (partner 0.25 µM) registered a relative viability of 1.12.

The same experiment, now with this note: first compound 20 µM.
In turn, `COCC1(CO)C(=O)C2CCN1CC2` (centres undefined) [PRIMA-1MET] + COc1cc2c(Oc3ccc(NC(=O)C4(C(=O)Nc5ccc(F)cc5)CC4)cc3F)ccnc2cc1OCCCN1CCOCC1 [Foretinib] (partner 0.25 µM) gave a relative viability of 1.02.
